Laboratory results taken from US8969409B2, “Treatment for pulmonary hypertension” (United Therapeutics Corporation, priority 2010, dated 2015).

How the values were obtained:
[1] = system: pulmonary artery pressure (PAP); assay: Rat model of acute PAH: U-44069 infusion, pulmonary artery pressure by telemetry; assay type: in vivo
Method: This study utilized administration of a thromboxane agonist to elevate pulmonary artery pressure (PAP) in the rat as a model for PAH. Treprostinil was administered to the rats by oral gavage (UT-15C), nose-only inhalation (Tyvaso) or in a combined oral+inhalation regimen, followed by PAP assessment.
Experimental Design: For this study, a rat model of acute PAH was developed with the ability to measure real-time PAP by telemetry from a catheter surgically implanted into the rat pulmonary artery. To induce PAH in this model, a 15 minute intravenous (IV) infusion of the thromboxane agoinst, U44069, was administered, and PAP was monitored and recorded every 5 seconds.
To establish this model, initial testing and optimization of the concentration and infusion rate of the U-44069 was performed to best achieve elevated PAP. […] Following the preliminary individual oral and inhaled treprostinil range-finding studies, a combination administration of oral+inhaled treprostinil was performed.
The animals received U-44069 (0.5 mg/mL) at a dose rate of 10 mL/kg/hr for 15 minutes for a total dose of 1.25 mg/kg/dose. The animals received 3 to 4 IV doses/session, as detailed below.
• 1. Animals were treated as follows: • 2. IV for 15 minutes • 3. Oral gavage, as soon as practicable following the 15-minute infusion • 4. 1 hour following gavage, IV for 15 minutes. • 5. 2 hours following gavage, IV for 15 minutes Dose 2, inhalation:
Animals were treated as follows: • 1. IV for 15 minutes • 2. Inhalation exposure, as soon as practicable following the 15-minute infusion • 3. Approximately 5 minutes after inhalation completion, IV for 15 minutes. • 4. 1 hour later, IV for 15 minutes Dose 3, inhalation and oral gavage:
Animals were treated as follows: • 1. IV for 15 minutes • 2. Oral gavage, as soon as practicable following the 15-minute infusion • 3. Inhalation exposure, as soon as practicable following oral gavage. All animals were exposed to the low dose (5.26 μg/kg). • 4. Approximately 5 minutes after inhalation completion, IV for 15 minutes. • 5. 1 hour later, IV for 15 minutes • 6. 2 hours after oral gavage, IV for 15 minutes for 2 animals (1 low and 1 high oral dose) Inhaled, Oral and Combination Treprostinil Dosing Results: […]

[2] = low pH (stomach); cited from earlier work
[3] = cited from earlier work

Compound: CCCCC[C@H](O)/C=C/[C@H]1[C@@H]2CO[C@@H](C2)[C@@H]1C/C=C\CCCC(=O)O [U-44069]
- maximum PAP during U-44069 infusion relative to baseline ([1]; IV U-44069 0.5 mg/mL, 10 mL/kg/hr for 15 minutes, all occasions except animal 2001): at least 150 % of the baseline

Compound: CCCCC[C@H](O)/C=C/[C@@H]1[C@H]2C/C(=C/CCCC(=O)O)O[C@H]2C[C@H]1O [prostacyclin]
- stability at low pH [2]: inactivated by a low pH
- half-life in the blood [3]: 3 to 5 min

Compound: CCCCC[C@H](O)CC[C@@H]1[C@H]2Cc3cccc(OCC(=O)O)c3C[C@H]2C[C@H]1O [treprostinil]
- PAP reduction when oral treprostinil added to low dose inhaled treprostinil ([1]; combination dosing regimen, in magnitude or duration): additional PAP reduction was observed
- PAP following inhalation exposure (immediately post dosing) ([1]; inhalation 5.26, 10.6 or 34.1 μg/kg/day, all dose levels, during U-44069 infusion): approximately 120 % the baseline
- PAP at 1 hr post dosing compared to IPD values ([1]; inhalation 5.26, 10.6 or 34.1 μg/kg/day, additional U-44069 injection 1 hour after inhalation): significantly increased
- PAP reduction at IPD, combination dosing Group 3 ([1]; low dose inhaled (5.26 μg/kg/day) + high oral gavage, versus individual high dose inhalation (34.1 μg/kg/day), sustained to 1 hr PD): equivalent (#3001) or greater (#3002)
- PAP reduction, combination dosing Group 1 ([1]; low dose inhaled (5.26 μg/kg/day) + low (5 mg/kg/dose) oral gavage, versus low dose inhaled alone): sustained effect to 1 hr
- PAP decrease at IPD, combination dosing Group 2 ([1]; low dose inhaled (5.26 μg/kg/day) + mid (10 mg/kg/dose) oral gavage, versus individual mid-dose inhalation (10.6 μg/kg/day)): equivalent or greater
- PAP after oral gavage ([1]; oral gavage 5, 10 or 15 mg/kg/dose, 1 hr PD and 2 hr PD): decreases in PAP were generally observed in a dose-related fashion
- PAP during the PAH condition, any route of administration ([1]; oral gavage, nose-only inhalation or combined): generally reduce PAP
